# US11821005B2, “Umbilical cord mesenchymal stem cells (MSCs) and culture method and application thereof” (FOSHAN JINGZHUN JIEN HEALTH MANAGEMENT CONSULTING CO., LTD., priority 2019, dated 2023)
# Where a name gives a salt, the structure may show the parent alone.
# Test system: umbilical cord MSCs (P3-P5 cells)
# Assay: agglomeration of cultured MSCs after adding ligustrazine hydrochloride and/or Shenmai injection (cell graphs)
# Format: cell-based, human
# Details: Day 1 after addition, ligustrazine hydrochloride 40-80 mg/L, Shenmai injection 0.5% by volume, FIG. 1 to FIG. 9
# Description: 2.9 A ligustrazine hydrochloride (GYZZ H20041175 injection of Harbin Medisan Pharmaceutical Co., Ltd., which follows the Second Supplement to the National Standard and can be directly injected into human bodies) and a Shenmai injection (GYZZ Z63021721 of Yunnan Phytopharmaceutical Co., Ltd., which follows the National Drug Standard (Amendment) WS3-B-3428-98-2010 and can be directly injected into human bodies) were added to P3-P5 cells respectively. The concentration of the ligustrazine hydrochloride was 40-80 mg/L and the Shenmai injection was 0.5% by volume. After culture for 24 hours, change the medium and culture for another one week, the cells grown to a fusion degree of 80-90% were collected and digested for tests. The products obtained in the steps are biodetected to eliminate etiological contamination.
# The cells were divided into three groups: a. only the Shenmai injection was added; b. only the ligustrazine hydrochloride was added; and c. both the Shenmai injection and the ligustrazine hydrochloride were added for comparison.
structure (smiles),measurement,value
Cc1nc(C)c(C)nc1C [ligustrazine hydrochloride],agglomeration of the cells,improved to some extent
